From US20230136075A1, “TREATMENT FOR SEPSIS-INDUCED ORGAN DYSFUNCTION” (The Florey Institute of Neuroscience and Mental Health, priority 2020, published 2023)
Read-outs that look alike come from different tables or passages of the source.

Tests used:
[1] = system: ovine sepsis induced by intravenous infusion of live E. coli; assay: Vitamin C dose response in ovine sepsis (Example 3); assay type: in vivo
Experimental: The inventors then sought to determine the minimum dose of intravenous vitamin C required to reverse the pathophysiological features of sepsis and acute kidney injury, using the ovine sepsis model described in Example 1. Surgical procedures and initiation of gram negative sepsis were as described in Example 1.
At 24 hours of sepsis, sheep were randomised into one of four groups (n=2 each): (i) sodium ascorbate treatment at 1 g/kg for 7 hours; (ii) sodium ascorbate treatment at 2 g/kg for 7 hours; (iii) sodium ascorbate treatment at 3 g/kg for 7 hours; or (iv) fluid-matched vehicle. Norepinephrine doses were titrated to achieve a target blood pressure (75-80 mm Hg). All sodium ascorbate doses were given as a bolus followed by a continuous infusion. The bolus doses for the 1, 2 and […] treatments were, respectively, 0.133, 0.267 and 0.4 g/kg (5.3, 10.7 and 16 g for a 40 kg sheep. Sodium ascorbate was diluted in 1:1 ratio with 5% glucose prior to intravenous administration. At 31 hours of sepsis, animals were euthanised for tissue collection to facilitate molecular and histological investigations.

[2] = system: ovine sepsis induced by intravenous infusion of live E. coli
Excerpt: Using this model, the inventors have investigated the effect of mega dose intravenous vitamin C therapy on various parameters indicative of the progression of sepsis in sheep (Merino ewes, 35-45 kg; 1.5-2.0 years old). Sheep were divided into two groups, a vitamin C (sodium ascorbate) therapy group and a vehicle group as a control. Experimental protocols were approved by the Animal Ethics Committee of the Florey Institute of Neuroscience and Mental Health under guidelines of the National Health and Medical Research Council of Australia.
Preparatory surgical procedures were carried out as described in Lankadeva et al. (2018b). Briefly, two preparatory surgical procedures were performed under general anaesthesia. First, a carotid artery was exteriorised into a skin fold to form a carotid arterial loop to facilitate cannulation for measurement of arterial pressure and heart rate, and for blood sampling. During the same surgical procedure, a flow probe was placed around the pulmonary artery to measure cardiac output. Animals were allowed 3-4 weeks of recovery. Second, a flow probe was implanted around a renal artery to measure renal blood flow, a renal vein was cannulated for blood sampling and fibre optic probes were inserted into the renal cortex, renal medulla (within kidneys) and parietal cortex (brain) to measure tissue perfusion, oxygen tension and temperature.
During the second surgical procedure cannulae were implanted in the carotid artery for arterial pressure measurement and blood sampling and the jugular vein for infusion of fluids, vasopressors, Escherichia coli, sodium ascorbate and blood sampling, and a Foley catheter was inserted into the bladder to collect urine and monitor hourly urine output.
Following three days of recovery from the second surgical procedure, the experimental protocol (see FIG. 1) was initiated in conscious sheep, to avoid the confounding effects of general anaesthesia. Animals daily food and water intake and urine output was measured on a 24-hour basis during the course of the 5-day protocol.
First, a 24-hour baseline period was commenced, which included measurement of systemic haemodynamics, renal and brain perfusion and oxygenation, arterial, central venous and renal venous blood gases and lactate, and urine output. Arterial blood and urine samples were collected at set times during the experimental period.
After establishment of the 24-hour baseline period, gram-negative sepsis was induced by intravenous infusion of live E. coli (isolated from a patient with sepsis at Austin Health) as described in Lankadeva et al. (2018b), administered as a loading (bolus) infusion of 2.8×10^9 colony-forming units (CFU) over 30-minutes followed by a continuous infusion of 1.26×10^9 CFU/h for 30.5 hours. No prophylactic antibiotics, sedative or analgesic agents were administered during this protocol. The description in the following paragraphs is with reference to the protocol as shown schematically in FIG. 1.
At 23 hours of sepsis, when sheep had fulfilled the clinical criteria for sepsis (i.e. established hypotension, tachycardia, fever, lung injury, tachypnoea, hyperlactatemia and stage 1-2 acute kidney injury) animals were resuscitated with 30 mL/kg balanced crystalloid sodium lactate (Hartmann's solution infused at approximately 2500 ml/hr) for 30 mins, from 23-23.5 hours of sepsis.
A blocked randomization design was used to allocate sheep to treatment with sodium ascorbate or vehicle.

[3] = system: septic human patient with severe COVID-19; assay: Mega-dose sodium ascorbate in one septic patient with severe COVID-19 (Example 2); assay type: in vivo
Excerpt: FIG. 6. Changes in systemic hemodynamics and renal function in response to mega-dose sodium ascorbate (Na Asc) treatment in one septic human patient with a severe case of COVID-19 disease 2019 (n=1). Norepinephrine dose (A), arterial blood oxygen tension (PO2) (filled squares) and inspired oxygen fraction (open circles) (B), mean arterial pressure (C), serum creatinine (D), heart rate (E), and urine output (F) are presented at pre-treatment (time 0), after a 30-min infusion of Na Asc bolus therapy (BT, 30 g), and then at hourly intervals during an infusion of Na Asc for 6.5 hr (4.6 g/hr).
A person was admitted to ICU with severe COVID-19 disease. The patient presented with acute respiratory distress syndrome (ARDS), vasodilatory shock and acute kidney injury, with a temperature of 40° C. The patient was intubated and placed on a ventilator. At noon, their urinary output was 10 ml/hr.
The patient (weighing approximately 80 kg) was administered 30 g of intravenous sodium ascorbate over 30 minutes beginning at 1 pm, followed by an infusion of 30 g sodium ascorbate over the next 6 hours.

[4] = 1, 2 and 3 g/kg sodium ascorbate compared, n=2 each
[5] = 3 g/kg sodium ascorbate for 7 hours, n=2
[6] = sodium ascorbate infusion, 24-31 hr of sepsis
[7] = sodium ascorbate infusion, 24-31 hr of sepsis, maintained for the following 2 days

**Q.** What does the source list for O=C1O[C@H]([C@@H](O)CO)C([O-])=C1O.[Na+] [sodium ascorbate]?
**A.** increase in urinary output [1, 4]: greatest in the 3 g/kg sodium ascorbate treatment group; normalisation of body temperature [1, 4]: strongest in the 3 g/kg sodium ascorbate treatment group; recovery in arterial PO2 [1, 4]: strongest in the 3 g/kg sodium ascorbate treatment group; reduction in arterial blood lactate levels [1, 4]: greatest in the 3 g/kg sodium ascorbate treatment group; norepinephrine dose requirements ([1]; 1, 2 and 3 g/kg sodium ascorbate for 7 hours, n=2 each): reduction in norepinephrine dose requirements with increased sodium ascorbate doses; renal medullary oxygen levels [1, 5]: improvement; vasopressor requirements for attaining target blood pressure (75-80 mm Hg) [1, 5]: Total withdrawal of vasopressor requirements; adverse side-effects ([1]; during these pre-clinical studies): No adverse side-effects were observed; dose required to provide optimal benefits towards reversing the pathophysiological features of sepsis ([1]; intravenous, based on dose response analysis and Examples 1 and 2): at least 3 g/kg; clinical state of septic sheep ([2]; after infusion of sodium ascorbate for 3 hours, 0.5 g/kg bolus then 0.5 g/kg/hr iv, n=5): dramatically improved; renal histology: acute tubular necrosis or interstitial fibrosis in renal cortex, corticomedullary junction or medulla ([2]; at 48 hours of recovery): no acute tubular necrosis or interstitial fibrosis; dose of norepinephrine required to maintain mean arterial pressure ([2]; by 4 hours of sodium ascorbate infusion, n=5): not required in four of five sheep; body temperature ([2]; during sodium ascorbate therapy, 24-31 hr of sepsis, septic fever 41.4±0.2): ~39 °C; arterial blood potassium (hypokalemia) ([2]; infusion of sodium ascorbate): 3.14 ± 0.16 mmol/L; arterial blood sodium (hypernatremia) ([2]; infusion of sodium ascorbate): 153.6 ± 1.7 mmol/L; ischemia and hypoxia in the brain ([2]; sodium ascorbate 3.75 g/kg intravenous): a reversal of ischemia and hypoxia in the brain; arterial blood pH [2, 6]: no effects; cardiac output [2, 6]: significant, progressive decreases; creatinine clearance [2, 6]: significantly increased; fraction excretion of potassium [2, 6]: did not alter; fractional excretion of sodium [2, 6]: significantly increased; heart rate [2, 6]: significant, progressive decreases; partial pressure of carbon dioxide [2, 6]: no effects; plasma creatinine [2, 6]: corrected the increased plasma creatinine to below baseline levels; renal blood flow [2, 6]: decreased toward healthy levels; renal cortical tissue PO2 [2, 6]: Neither fluid bolus therapy, sodium ascorbate, nor norepinephrine had significant effects; renal vascular conductance [2, 6]: decreased toward healthy levels; level of peripheral vasoconstriction ([2]; sodium ascorbate infusion, 24-31 hr of sepsis, despite reduced norepinephrine dose): increased; renal medullary PO2 [2, 7]: increased further throughout the infusion; renal medullary perfusion [2, 7]: improved toward preseptic levels; arterial lactate ([2]; sodium ascorbate infusion, 2.0±0.2 mmol/L at 23 hours of sepsis): significant, progressive reduction; arterial PO2 ([2]; sodium ascorbate infusion, 80±3 at 23 hours of sepsis): 96.5±3.4 mm Hg; increase in plasma aspartate aminotransferase during sepsis ([2]; sodium ascorbate treatment): significantly reduced; increase in plasma bilirubin during sepsis ([2]; sodium ascorbate treatment): significantly reduced; urine flow ([2]; the 2 days following sodium ascorbate infusion): remained at normal baseline levels; urine flow ([2]; within 30 minutes of sodium ascorbate infusion, remained high throughout the infusion): greater than 10 mL/kg/hr; urinary output ([3]; 1st hour post initiation of treatment, 10 ml/hr prior to treatment): 175 mL/h; urinary output ([3]; 2nd hour post initiation of treatment): 160 mL/h; urinary output ([3]; 3rd hour post initiation of treatment): 400 mL/h; urinary output ([3]; 4th hour post initiation of treatment): 180 mL/h; urinary output ([3]; 5th hour post initiation of treatment): 125 mL/h; urinary output ([3]; 6th hour post initiation of treatment): 145 mL/h; arterial blood oxygen levels ([3]; after 6 hours of sodium ascorbate treatment, 65 pre-treatment, FiO2:40%): 90 mm Hg; time to extubation ([3]; after the treatment (intensive care day 15)): 12 days; time to discharge from hospital without any complications ([3]; after treatment): 22 days; lactate ([3]; during the treatment, decreased from 2.6): 1.9 mmol/L; FiO2 ([3]; during the treatment, dropped from 0.45, positive end-expiratory pressure 14 cm H2O): 0.30; heart rate ([3]; during the treatment, dropped from 130): 105 beats/min; time in which blood pressure normalised, vasopressor requirements reduced and renal function improved ([3]; human patient with COVID-19, mega dose intravenous vitamin C): less than six hours; urine flow ([3]; increase during the treatment, from 10): 400 mL/h; plasma creatinine ([3]; over the course of sodium ascorbate administration (30 g over 30 minutes then 30 g infusion), 118 before treatment, n=1): 84 µmol/L; norepinephrine infusion ([3]; over the course of sodium ascorbate administration, 8 before): 0 µg/min
